Source: patent US6258790A, “Antisense modulation of integrin α4 expression” (Isis Pharmaceuticals, Inc., priority 1999, dated 2001)

Tested on: human integrin α4
Experiment: Inhibition of human integrin α4 protein levels by antisense oligonucleotides (LIPOFECTIN, flow cytometry with CD49d-FITC) in A375 melanoma cells
Format: cell-based
Settings: for % Control (integrin α4 protein) / % Inhib (integrin α4 protein): Table 1, A375 cells, 200 nM oligonucleotide, 6 ug/ml LIPOFECTIN; for inhibition (Example 11): Example 11 assay, dose not stated; for % CONTROL 48 hr / % INHIB 48 hr / % CONTROL 72 hr / % INHIB 72 HR: Table 2, A375; for % Control / % Inhib.: Table 6
Source text: Integrin α4 protein levels can be quantitated in a variety of ways well known in the art, such as immunoprecipitation, Western blot analysis (immunoblotting), ELISA or fluorescence-activated cell sorting (FACS). Antibodies directed to integrin α4 can be identified and obtained from a variety of sources, such as the MSRS catalog of antibodies (Aerie Corporation, Birmingham, Mich.), or can be prepared via conventional antibody generation methods.
Target sites are indicated by nucleotide numbers, as given in the sequence source reference (GenBank accession no. L12002), to which the oligonucleotide binds. All compounds in Table 1 are 18 nucleotides in length, with a phosphorothioate backbone and a centered 10-base deoxynucleotide gap flanked by 2'-methoxyethoxy (2'MOE) wings. Human A375 melanoma cells (American Type Culture Collection, Manassas, Va.) were plated at 2000 cells/cm^2 two days before oligonucleotide treatment. Cells were treated with oligonucleotides at a dose of 200 nM oligonucleotide and 6 ug/ml LIPOFECTIN for four hours. Cells were incubated overnight and harvested with 2 mM EDTA in PBS. Cells were washed in 2% bovine serum albumin, 0.2% sodium azide in D-PBS at 4° C. Cells were centrifuged at 200×g, and the supernatant was decanted. […] Antibodies were incubated with the cells for 30 minutes at 4° C. in the dark, under gentle agitation. Cells were washed again as above and then resuspended in 0.3 ml of FacsFlow buffer with 0.5% formaldehyde. Cells were analyzed on Becton Dickinson FACScan. Results are expressed as percentage of control expression based on mean fluorescence intensity.
Cells were harvested with trypsin at 48 and 72 hours after oligonucleotide treatment and stained with 2 ug/ml CD49d-FITC as in the previous example.
Where backbones are mixed, linkages are shown as "s" for phosphorothioate (P=S or PS) and "o" for phosphodiester (P=O or PO). Where target region is indicated as `M62841,` oligonucleotides are targeted to the promotor region whose sequence is described in GenBank Accession No. M62841. Remaining oligonucleotides are targeted to the sequence described in Genbank Accession No. L12002 and their target sites on the L12002 sequence are indicated.
Target sites refer to nucleotide numbers on the target sequence (GenBank Accession No. L12002) to which the oligonucleotides hybridize.
Oligonucleotides were synthesized as "gapmers" consisting of a 9-nucleotide region of deoxynucleotides flanked by three 2'-O-methoxyethyl(2'-MOE) nucleotides on the 5' end and eight 2'-MOE nucleotides on the 3' end. 2'-MOE nucleotides are shown in bold in the table. Oligonucleotides were synthesized with phosphorothioate backbones throughout, and all cytosines are 5-methylcytosines.

For “24439 (CTCCGTCTCTGCCTACGC; chemistry not given here) [compound 24439]”, the “% Control (integrin α4 protein)” value was 120%.

In the case of “24440 (CGGGTGCTCGCGCTGCTT; chemistry not given here) [compound 24440]”, the “% Control (integrin α4 protein)” value is reported as 101%.

In the case of “24441 (CCTGGGATGCCGCGCACT; chemistry not given here) [compound 24441]”, the “% Control (integrin α4 protein)” value is reported as 112%.

“24442 (ATGAGGCGCAGCGTGTCC; chemistry not given here) [compound 24442]” was tested, and the “% Control (integrin α4 protein)” value was 82% and the “% Inhib (integrin α4 protein)” value was 18%.

For “24443 (CAAAGTTGCACGGGATGC; chemistry not given here) [compound 24443]”, the “% Control (integrin α4 protein)” value was 63% and the “% Inhib (integrin α4 protein)” value was 37%.

“24444 (GGAACATTCAACACTAAG; chemistry not given here) [compound 24444]” was tested, and the “% Control (integrin α4 protein)” value was 68% and the “% Inhib (integrin α4 protein)” value was 32%.

With “24445 (CCCGGGTTCGCGCCTCGC; chemistry not given here) [compound 24445]” the “% Control (integrin α4 protein)” value was 73% and the “% Inhib (integrin α4 protein)” value was 27%.

With “24446 (GCGCGCTCTCAGTGTCCA; chemistry not given here) [compound 24446]” the “% Control (integrin α4 protein)” value was 58% and the “% Inhib (integrin α4 protein)” value was 42%.

“24447 (GTGGCTGTGCAGCACGAC; chemistry not given here) [compound 24447]” was tested, and the “% Control (integrin α4 protein)” value was 76% and the “% Inhib (integrin α4 protein)” value was 24%.

“24448 (ACTGAAGCGTTGGCGAGC; chemistry not given here) [compound 24448]” was tested, and the “% Control (integrin α4 protein)” value was 55% and the “% Inhib (integrin α4 protein)” value was 45%.

In the case of “24449 (GCACGTCTGGCCGGGATT; chemistry not given here) [compound 24449]”, the “% Control (integrin α4 protein)” value is reported as 61% and the “% Inhib (integrin α4 protein)” value is reported as 39%.

“24451 (CCACTGATTGTCTCTCTC; chemistry not given here) [compound 24451]” was tested, and the “inhibition (Example 11)” value was ≥ 40%, the “% Control (integrin α4 protein)” value was 51% and the “% CONTROL 48 hr” value (50 nM) was 63%. For the same substance, the “% INHIB 48 hr” value (50 nM) was 37%, the “% CONTROL 48 hr” value (100 nM) was 44% and the “% INHIB 48 hr” value (100 nM) was 56%. The “% CONTROL 48 hr” value (200 nM) was 34%, the “% INHIB 48 hr” value (200 nM) was 66% and the “% CONTROL 48 hr” value (400 nM) was 44%. For the same substance, the “% INHIB 48 hr” value (400 nM) was 56%, the “% Control” value (10 nM) was 96% and the “% Control” value (30 nM) was 77%. The “% Inhib.” value (30 nM) was 23%, the “% Control” value (100 nM) was 66% and the “% Inhib.” value (100 nM) was 34%. The “% Control” value (300 nM) was 35% and the “% Inhib.” value (300 nM (highest dose)) was 65%.

“24452 (GGATCCATTTTCTCCTGG; chemistry not given here) [compound 24452]” was tested, and the “% Control (integrin α4 protein)” value was 60% and the “% Inhib (integrin α4 protein)” value was 40%.

In the case of “24453 (GCTTATTTTCATTCTTTA; chemistry not given here) [compound 24453]”, the “inhibition (Example 11)” value is reported as ≥ 40%, the “% Control (integrin α4 protein)” value is reported as 47% and the “% CONTROL 48 hr” value (50 nM) is reported as 79%. The “% INHIB 48 hr” value (50 nM) was 21%, the “% CONTROL 72 hr” value (50 nM) was 78% and the “% INHIB 72 HR” value (50 nM) was 22%. For the same substance, the “% CONTROL 48 hr” value (100 nM) was 95%, the “% CONTROL 72 hr” value (100 nM) was 93% and the “% CONTROL 48 hr” value (200 nM) was 38%. For the same substance, the “% INHIB 48 hr” value (200 nM) was 62%, the “% CONTROL 72 hr” value (200 nM) was 64% and the “% INHIB 72 HR” value (200 nM) was 36%. For the same substance, the “% CONTROL 48 hr” value (400 nM) was 41%, the “% INHIB 48 hr” value (400 nM) was 59% and the “% CONTROL 72 hr” value (400 nM) was 58%. The “% INHIB 72 HR” value (400 nM) was 42%, the “% Control” value (10 nM) was 88% and the “% Inhib.” value (10 nM) was 12%. For the same substance, the “% Control” value (30 nM) was 90%, the “% Inhib.” value (30 nM) was 10% and the “% Control” value (100 nM) was 80%. The “% Inhib.” value (100 nM) was 20%, the “% Control” value (300 nM) was 43% and the “% Inhib.” value (300 nM (highest dose)) was 57%.

For “24454 (TTCTTTTACTCAGTTCTG; chemistry not given here) [compound 24454]”, the “% Control (integrin α4 protein)” value was 53% and the “% Inhib (integrin α4 protein)” value was 47%.

In the case of “24455 (TCACATAATCTTGATAAC; chemistry not given here) [compound 24455]”, the “% Control (integrin α4 protein)” value is reported as 81% and the “% Inhib (integrin α4 protein)” value is reported as 19%.

For “24456 (CCCATCACAATTAAATCC; chemistry not given here) [compound 24456]”, the “% Control (integrin α4 protein)” value was 76% and the “% Inhib (integrin α4 protein)” value was 24%.

For “24457 (TTATTTGTAGTTATATTG; chemistry not given here) [compound 24457]”, the “% Control (integrin α4 protein)” value was 106%.

For “24458 (CCTAAATAACTTCCAAAT; chemistry not given here) [compound 24458]”, the “% Control (integrin α4 protein)” value was 88% and the “% Inhib (integrin α4 protein)” value was 12%.

In the case of “24459 (GAAAATGACCAGCTCCGA; chemistry not given here) [compound 24459]”, the “% Control (integrin α4 protein)” value is reported as 61% and the “% Inhib (integrin α4 protein)” value is reported as 39%.

For “24460 (TTTCATGTAAGATATTTA; chemistry not given here) [compound 24460]”, the “% Control (integrin α4 protein)” value was 94%.

“24461 (CCACAGCACAGACAGAAG; chemistry not given here) [compound 24461]” was tested, and the “% Control (integrin α4 protein)” value was 69% and the “% Inhib (integrin α4 protein)” value was 31%.

For “24462 (TGGTGCTCTGCATGGGTG; chemistry not given here) [compound 24462]”, the “% Control (integrin α4 protein)” value was 65% and the “% Inhib (integrin α4 protein)” value was 35%.

In the case of “24463 (TACACAAACACTCTTCCT; chemistry not given here) [compound 24463]”, the “% Control (integrin α4 protein)” value is reported as 101%.

“24464 (TTTGTTTCCATTGCATTC; chemistry not given here) [compound 24464]” was tested, and the “% Control (integrin α4 protein)” value was 62% and the “% Inhib (integrin α4 protein)” value was 38%.

In the case of “24465 (TGCAGCATATTTGTCACT; chemistry not given here) [compound 24465]”, the “% Control (integrin α4 protein)” value is reported as 63% and the “% Inhib (integrin α4 protein)” value is reported as 37%.

With “24466 (TTGTCAATGTCGCCAAGA; chemistry not given here) [compound 24466]” the “% Control (integrin α4 protein)” value was 64% and the “% Inhib (integrin α4 protein)” value was 36%.

For “24467 (TCATCTTCTTGTGGAGCT; chemistry not given here) [compound 24467]”, the “% Control (integrin α4 protein)” value was 101%.

“24468 (CCATCTGCACGGCCATTG; chemistry not given here) [compound 24468]” was tested, and the “% Control (integrin α4 protein)” value was 72% and the “% Inhib (integrin α4 protein)” value was 28%.

“24469 (GTCCAAACATACTTAACG; chemistry not given here) [compound 24469]” was tested, and the “% Control (integrin α4 protein)” value was 68% and the “% Inhib (integrin α4 protein)” value was 32%.

With “24470 (TATCTGCATCAATTTGTC; chemistry not given here) [compound 24470]” the “% Control (integrin α4 protein)” value was 83% and the “% Inhib (integrin α4 protein)” value was 17%.

With “24471 (ACCGAAAAGCACCAACTG; chemistry not given here) [compound 24471]” the “% Control (integrin α4 protein)” value was 80% and the “% Inhib (integrin α4 protein)” value was 20%.

“24472 (CTTGTCCTTAGCAAGACA; chemistry not given here) [compound 24472]” was tested, and the “% Control (integrin α4 protein)” value was 65% and the “% Inhib (integrin α4 protein)” value was 35%.
